Test results: patent publication US20250197390A1, “FUSED HETEROCYCLIC COMPOUND, AND PREPARATION METHOD THEREFOR AND MEDICAL USE THEREOF” (Jiangsu Hengrui Pharmaceuticals Co., Ltd., priority 2022, published 2025)

Key:
[1] = tested on: HT29 cells; assay: Inhibition of necroptosis of HT29 cells (CTG method); assay type: cell-based; conditions: Homo sapiens, HT-29, TZA mixture (TNFα, Z-VAD-FMK, AT-406) 24 h, CellTiter-Glo, read-out: IC50, inhibitory effect on necroptosis of HT29 cells
Method: Test Example 1: Inhibitory Effects of Compounds of the Present Disclosure on Necroptosis of HT29 Cells
The CTG method was used for detecting the inhibitory effects of the compounds of the present disclosure on the necroptosis of HT29 cells. The specific procedures are as follows:
HT29 cells were purchased from American Type Culture Collection (ATCC, HTB-38) and cultured with a McCoy's 5A medium (10% FBS) in a 37° C. incubator with 5% carbon dioxide. The cell culture density was maintained at 2×10^4 to 8×10^4 cells/cm^2, and the cells were passaged 2-3 times a week.
• a. Test compounds were dissolved in DMSO to 2 mM. • b. The compounds were 3-fold diluted from an initial concentration of 2 mM to 10 gradient concentrations. • c. All concentrations of compounds were 100-fold diluted with the culture medium for later use.
• a. The cells were counted, and the cell density was adjusted to 1×10^5 cells/mL with a fresh culture medium. • b. The cells were seeded in a 96-well plate at 80 µL/well and cultured at 37° C. overnight. • c. […] After the culture plate was left to stand at room temperature for 0.5 h, a stable luminescence signal was obtained, and then the plate was read using a microplate reader. • g. The IC50 values of the compounds of the present disclosure were calculated by the Graphpad software.

[2] = molecular target: RIPK1 kinase (Homo sapiens (Human), UniProt Q13546); assay: RIPK1 kinase inhibition (ADP-Glo method); assay type: biochemical; conditions: ATP and MBP substrate, 90 min, read-out: IC50, inhibitory activity against RIPK1 kinase
Sequence of RIPK1 kinase (Q13546 1-327): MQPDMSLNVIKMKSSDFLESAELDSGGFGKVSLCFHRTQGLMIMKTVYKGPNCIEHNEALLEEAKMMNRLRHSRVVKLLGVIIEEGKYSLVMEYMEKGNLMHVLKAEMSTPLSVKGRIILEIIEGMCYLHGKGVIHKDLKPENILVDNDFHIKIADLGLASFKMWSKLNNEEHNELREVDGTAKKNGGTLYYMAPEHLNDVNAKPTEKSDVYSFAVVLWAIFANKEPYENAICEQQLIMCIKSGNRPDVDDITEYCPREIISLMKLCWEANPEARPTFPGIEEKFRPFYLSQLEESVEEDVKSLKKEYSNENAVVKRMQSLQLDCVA
Description: Test Example 2: Inhibitory Activities of Compounds of the Present Disclosure Against RIPK1 Kinase (ADP-Glo Method)
The ADP GLO method was used for detecting the inhibitory activities of the compounds of the present disclosure against RIPK1 kinase. The method is specifically as follows:
• 1) RIPK1 kinase reaction system (containing RIPK1 kinase, MBP, 5× reaction buffer, MnCl2 and DTT) (Promega, VA7592) • 2) ADP-Glo kinase detection kit (containing ADP-Glo reagent and kinase detection reagents) (Promega, V9101) • 3) ATP solution (10 mM) (Thermofisher PV3227) • 4) 96-well small-volume white plate (Cisbio, 66PL96100) • 5) PHERA star microplate reader (BMG labtech)
• a. Reaction buffer: a reaction buffer containing DTT at a final concentration of 50 μM and MnCl2 at a final concentration of 4 mM was prepared using 5× reaction buffer; • b. RIPK1 kinase solution: a RIPK1 kinase solution at a final concentration of 10 ng/μL was prepared using the reaction buffer; • c. […]
• a. […] The plate was read using the PHERA star microplate reader, and relative luminescence unit (RLU) values were recorded. • g. Plotting was performed using the Graphpad software, and the IC50 values of the compounds of the present disclosure were calculated.

[3] = Pharmacokinetic evaluation in beagles after intragastric administration; assay type: in vivo; conditions: both sexes, beagle, dog, plasma, po, 2 mg/kg
Method: Test Example 3: Pharmacokinetic Evaluation of Compound of the Present Disclosure in Dogs
Beagles were used as test animals. Plasma concentrations of the compound of Example 2 at different time points after intragastric administration of Example 2 compound to beagles were determined using an LC/MS/MS method. The pharmacokinetic performance of the compound of the present disclosure was studied in beagles and its pharmacokinetic profile was evaluated.
Eight beagles were provided by Jiangsu Johnbio Biotechnology Co., Ltd., with an equal number of males and females. The production license number was SCXK (Jiangsu) 2018-0005.
A certain amount of the compound of Example 2 was weighed out, and 5% DMSO+30% PG+30% PEG400+35% normal saline were added to prepare a 0.4 mg/mL clear solution.
The compound of Example 2 was administered at a dose of 2 mg/kg with a volume of 5 mL/kg.
The compound of Example 2 was intragastrically administered to the beagles. 0.5 mL of blood samples were collected from the forelimb vein 0 h before administration and 15 min, 30 min, 1.0 h, 2.0 h, 4.0 h, 6.0 h, 8.0 h, 11.0 h, and 24.0 h after administration. The blood samples were placed into EDTA-K2 anticoagulation test tubes and centrifuged at 10,000 rpm for 2 min (4° C.), and plasma was separated within 1 h and stored in a −80° C. refrigerator/dry ice before analysis. Two hours after administration, feeding was resumed.
After the administration of the compound of Example 2, the plasma concentrations of the compound of Example 2 in the beagles were determined: 50 μL of the beagle plasma at each time point after the administration was taken, and 25 μL of internal standard solution ([…] camptothecin) and 450 μL of acetonitrile were added, and the mixture was vortexed and centrifuged at 3700 rpm for 10 min. 0.5 μL of supernatant was collected for LC/MS/MS analysis.

SMILES	IC50 [1] [nM]	IC50 [2] [nM]	Vd/F ([3]; read-out: Apparent volume of distribution Vz/F) [L/kg]	AUC(0-t) ([3]; read-out: Area under curve AUC0-t) [ng·h/mL]	CL/F ([3]; read-out: Clearance rate CL/F) [mL/min/kg]	half-life ([3]; read-out: Half-life T1/2 (converted)) [h]	Cmax ([3]; read-out: Plasma concentration Cmax) [ng/mL]	MRT ([3]; read-out: Residence time MRT) [h]
Nc1nc2cc(-c3ccc4c(c3)C(=O)N(Cc3cc(OC(F)(F)F)ccc3F)CCO4)ccn2n1 [Example 1, 7-(2-Amino-[1,2,4]triazolo[1,5-a]pyridin-7-yl)-4-(2-fluoro-5-(trifluoromethoxy)benzyl)-3,4-dihydrobenzo[f][1,4]oxazepin-5(2H)-one]	13.3	23						
Nc1nc2cc(-c3ccc4c(c3)C(=O)N(Cc3cc(OC(F)(F)F)ccc3F)CCC4)ccn2n1 [Example 2, 8-(2-Amino-[1,2,4]triazolo[1,5-a]pyridin-7-yl)-2-(2-fluoro-5-(trifluoromethoxy)benzyl)-2,3,4,5-tetrahydro-1H-benzo[c]azepin-1-one]	1.5	2.7	0.49	51600	0.48	12.5	2940	19.4
